PubChem BioAssay AID328 (DTP/NCI, 2004)
“And” between values parts separate entries of the source, which are not always exact repeats. Equal values may be shown once. Inconclusive results and toxic doses are left out. How the source made its calls: active means survival T/C of 150% or more; inactive means T/C below 125% in these data.

Test system: BDF1 mice, P388 leukemia ip, median survival T/C
Assay: NCI In Vivo Anticancer Drug Screen. Data for tumor model P388 Leukemia (intraperitoneal) in B6D2F1 (BDF1) mice
Conditions: endpoint: median survival time, higher = longer survival
Summary of the method: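 Compound-treated tumour-bearing mice were compared with vehicle-treated controls. Survival was recorded, and the value is the treated-group measurement divided by the control-group measurement (T/C).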

[1] = dose: 25.0 mg/kg/injection, schedule: Q01DX009 (ip), vehicle: water
[2] = dose: 50.0 mg/kg/injection, schedule: Q01DX009 (ip), vehicle: saline
[3] = dose: 50.0 mg/kg/injection, schedule: Q01DX009 (ip), vehicle: water
[4] = dose: 100.0 mg/kg/injection, schedule: Q01DX009 (ip), vehicle: water
[5] = dose: 100.0 mg/kg/injection, schedule: Q04DX003 (ip), vehicle: saline

Measured: T/C

COc1cccc2c1C(=O)c1c(O)c3c(c(O)c1C2=O)C[C@@](O)(C(C)=O)C[C@@H]3OC1CC(NC(C)=O)C(O)C(C)O1 (stereo partly specified)
active: dose: 1.1 mg/kg/injection, schedule: Q01DX009 (ip), vehicle: saline 175 % of control | dose: 1.65 mg/kg/injection, schedule: Q01DX009 (ip), vehicle: saline 183 % of control | dose: 2.5 mg/kg/injection, schedule: Q01DX009 (ip), vehicle: saline 187 % of control | dose: 10.0 mg/kg/injection, schedule: Q04DX003 (ip), vehicle: saline 172 % of control | dose: 12.5 mg/kg/injection, schedule: Q01DX009 (ip), vehicle: saline 240 % of control and 191 % of control | dose: 12.5 mg/kg/injection, schedule: Q01DX009 (ip), vehicle: water 169 % of control | dose: 25.0 mg/kg/injection, schedule: Q01DX009 (ip), vehicle: saline 150 % of control | [1] 192 % of control | dose: 44.0 mg/kg/injection, schedule: Q04DX003 (ip), vehicle: saline sonified 180 % of control | dose: 44.0 mg/kg/injection, schedule: Q04DX003 (ip), vehicle: saline 159 % of control | [2] 227 % of control | [3] 204 % of control | dose: 66.0 mg/kg/injection, schedule: Q04DX003 (ip), vehicle: saline sonified 175 % of control | dose: 66.0 mg/kg/injection, schedule: Q04DX003 (ip), vehicle: saline 181 % of control | dose: 100.0 mg/kg/injection, schedule: Q04DX003 (ip), vehicle: saline sonified 205 % of control | [5] 195 % of control | dose: 150.0 mg/kg/injection, schedule: Q04DX003 (ip), vehicle: saline sonified 180 % of control | dose: 150.0 mg/kg/injection, schedule: Q04DX003 (ip), vehicle: saline 168 % of control
inactive: dose: 0.73 mg/kg/injection, schedule: Q01DX009 (ip), vehicle: saline 112 % of control | dose: 1.25 mg/kg/injection, schedule: Q04DX003 (ip), vehicle: saline 109 % of control | [4] 114 % of control

CC1(C)CC(=O)C=C(OCCc2ccccc2)C1
inactive: dose: 100.0 mg/kg/injection, schedule: Q01DX009 (ip), vehicle: saline with Tween-80 100 % of control | dose: 200.0 mg/kg/injection, schedule: Q01DX009 (ip), vehicle: saline with Tween-80 109 % of control | dose: 400.0 mg/kg/injection, schedule: Q01DX009 (ip), vehicle: saline with Tween-80 118 % of control

CCOP(=S)(OCC)Sc1cnn(C)c(=O)c1SCC
inactive: dose: 50.0 mg/kg/injection, schedule: Q01DX005 (ip), vehicle: saline with Tween-80 100 % of control | dose: 100.0 mg/kg/injection, schedule: Q01DX005 (ip), vehicle: saline with Tween-80 99 % of control | dose: 200.0 mg/kg/injection, schedule: Q01DX005 (ip), vehicle: saline with Tween-80 100 % of control

c1ccc(NNC(c2ccccc2)(c2ccccc2)c2ccccc2)cc1
inactive: dose: 100.0 mg/kg/injection, schedule: Q01DX009 (ip), vehicle: Klucel (hydroxypropylcellulose) (HPC) 90 % of control | dose: 100.0 mg/kg/injection, schedule: Q04DX003 (ip), vehicle: Klucel (hydroxypropylcellulose) (HPC) 104 % of control | dose: 200.0 mg/kg/injection, schedule: Q01DX009 (ip), vehicle: Klucel (hydroxypropylcellulose) (HPC) 100 % of control | dose: 200.0 mg/kg/injection, schedule: Q04DX003 (ip), vehicle: Klucel (hydroxypropylcellulose) (HPC) 91 % of control | dose: 400.0 mg/kg/injection, schedule: Q01DX009 (ip), vehicle: Klucel (hydroxypropylcellulose) (HPC) 90 % of control | dose: 400.0 mg/kg/injection, schedule: Q04DX003 (ip), vehicle: Klucel (hydroxypropylcellulose) (HPC) 95 % of control

CC(O)C1CCCNC1 (stereo unspecified)
inactive: [2] 110 % of control | dose: 100.0 mg/kg/injection, schedule: Q01DX009 (ip), vehicle: saline 100 % of control | [5] 108 % of control | dose: 200.0 mg/kg/injection, schedule: Q04DX003 (ip), vehicle: saline 104 % of control

Nc1nc(N)c2cc(S(=O)(=O)c3ccccc3)ccc2n1
inactive: dose: 50.0 mg/kg/injection, schedule: Q01DX009 (ip), vehicle: saline with Tween-80 92 % of control

CC(=O)[C@H]1CC[C@H]2[C@@H]3C[C@H](C)C4=CC(=O)CC[C@]4(C)[C@H]3C(=O)C[C@]12C
inactive: dose: 100.0 mg/kg/injection, schedule: Q04DX003 (ip), vehicle: saline with Tween-80 103 % of control | dose: 200.0 mg/kg/injection, schedule: Q04DX003 (ip), vehicle: saline with Tween-80 107 % of control | dose: 400.0 mg/kg/injection, schedule: Q04DX003 (ip), vehicle: saline with Tween-80 103 % of control

NC(=O)c1nc(C(F)(F)F)[nH]c1C(N)=O
inactive: [1] 107 % of control | [3] 105 % of control and 107 % of control | dose: 50.0 mg/kg/injection, schedule: Q04DX003 (ip), vehicle: water 102 % of control | [4] 108 % of control and 118 % of control | dose: 100.0 mg/kg/injection, schedule: Q04DX003 (ip), vehicle: water 102 % of control | dose: 200.0 mg/kg/injection, schedule: Q01DX009 (ip), vehicle: water 107 % of control and 118 % of control | dose: 200.0 mg/kg/injection, schedule: Q04DX003 (ip), vehicle: water 109 % of control | dose: 300.0 mg/kg/injection, schedule: Q01DX009 (ip), vehicle: water 96 % of control | dose: 400.0 mg/kg/injection, schedule: Q01DX009 (ip), vehicle: water 118 % of control | dose: 400.0 mg/kg/injection, schedule: Q04DX003 (ip), vehicle: water 102 % of control
